Laboratory results as given in patent publication US20210038681A1, “PHARMACEUTICAL COMPOSITION FOR TREATING VIRAL HEPATITIS C” (priority 2018, published 2021).
Read-outs that look alike come from different tables or passages of the source.

How the values were obtained:
MDCK cells = settings: MDCK cells, 10,000 nM
[1] = tested on: human rhinovirus 16 (HRV-16); test: Virus-cell protection assay; type: cell-based; settings: Rhinovirus A, HRV16; Virus HRV-16, cell line HeLa
[2] = tested on: HCV 4a NS5A Y93H replicon; test: microbe, parasite or virus in culture; type: cell-based
Text: (§1) The susceptibility degrees of WT replicons in the transient assay were similar to the values obtained from a cell assay using the stable HCV replicons.

HCV 4a NS5A WT replicon = test: microbe, parasite or virus in culture; type: cell-based
Text: as §1

HCV 1b L31V replicon = test: microbe, parasite or virus in culture; type: cell-based
Text: as §1

HCV 1a WT replicon = test: microbe, parasite or virus in culture; type: cell-based
Text: as §1

[3] = tested on: HCV 1b L31F + Y93H replicon; test: microbe, parasite or virus in culture; type: cell-based
Text: as §1

HCV 1b L31F replicon = test: microbe, parasite or virus in culture; type: cell-based
Text: as §1

HCV 1a Y93H replicon = test: microbe, parasite or virus in culture; type: cell-based
Text: as §1

HCV 1b Y93H replicon = test: microbe, parasite or virus in culture; type: cell-based
Text: as §1

[4] = tested on: HCV 5a NS5A L31F replicon; test: microbe, parasite or virus in culture; type: cell-based
Text: as §1

HCV 1a M28T replicon = test: microbe, parasite or virus in culture; type: cell-based
Text: as §1

[5] = tested on: HCV 2a NS5A Y93H replicon; test: microbe, parasite or virus in culture; type: cell-based
Text: as §1

HCV 3a NS5A WT replicon = test: microbe, parasite or virus in culture; type: cell-based
Text: as §1

HCV 2a NS5A WT replicon = test: microbe, parasite or virus in culture; type: cell-based
Text: as §1

HCV 1a Q30R replicon = test: microbe, parasite or virus in culture; type: cell-based
Text: as §1

[6] = tested on: HCV 4a NS5A P58L replicon; test: microbe, parasite or virus in culture; type: cell-based
Text: as §1

HCV 1a Y93C replicon = test: microbe, parasite or virus in culture; type: cell-based
Text: as §1

[7] = tested on: HCV 4a NS5A L30H replicon; test: microbe, parasite or virus in culture; type: cell-based
Text: as §1

HCV 5a NS5A WT replicon = test: microbe, parasite or virus in culture; type: cell-based
Text: as §1

HCV 1a Y93N replicon = test: microbe, parasite or virus in culture; type: cell-based
Text: as §1

HCV 1b WT replicon = test: microbe, parasite or virus in culture; type: cell-based
Text: as §1

HCV 1a Q30K replicon = test: microbe, parasite or virus in culture; type: cell-based
Text: as §1

HCV 6a NS5A WT replicon = test: microbe, parasite or virus in culture; type: cell-based
Text: as §1

[8] = tested on: HCV 2a NS5A F28S replicon; type: cell-based; settings: HCV genotype 2a, variant F28S; EC50 relative to WT
Text: as §1

[9] = tested on: HCV 4a NS5A L30H + Y93H replicon; type: cell-based; settings: HCV genotype 4a, variant L30H + Y93H; EC50 relative to WT
Text: as §1

[10] = tested on: HCV 1b L31V + Y93H replicon; type: cell-based; settings: HCV genotype 1b, variant L31V + Y93H; EC50 relative to WT
Text: as §1

[11] = tested on: HCV 6a NS5A F28S replicon; type: cell-based; settings: HCV genotype 6a, variant F28S; EC50 relative to WT
Text: as §1

HeLa cells = settings: HeLa H1A cells, 10,000 nM
[12] = Hepatitis C virus, read-out: Mean EC50 (nM) ±SD

**Q.** With COC(=O)N[C@H](C(=O)N1CCC[C@H]1c1ncc(-c2ccc3cc(-c4ccc5nc([C@@H]6CCCN6C(=O)[C@@H](NC(=O)OC)C(C)C)[nH]c5c4)ccc3c2)[nH]1)C(C)C [ASC16, Ravidasvir] as the compound, how does the “cytotoxicity at the highest test concentration” value (MDCK cells) read?
**A.** significant cytotoxicity

**Q.** What about the EC50 [1] of the same compound?
**A.** > 3300 nM

**Q.** And the Fold change ([2]; HCV genotype 4a, variant Y93H, EC50 relative to WT)?
**A.** 210

**Q.** What about the EC50 [2, 12] of the same compound?
**A.** 3.2 ± 0.2 nM

**Q.** And the Fold change (HCV 4a NS5A WT replicon; HCV genotype 4a, WT, EC50 relative to WT)?
**A.** 1

**Q.** What about the EC50 (HCV 4a NS5A WT replicon; [12]) of the same compound?
**A.** 0.02 ± 0.004 nM

**Q.** And the Fold change (HCV 1b L31V replicon; HCV genotype 1b, variant L31V, EC50 relative to WT)?
**A.** 85

**Q.** What about the EC50 (HCV 1b L31V replicon; [12]) of the same compound?
**A.** 0.9 ± 0.1 nM

**Q.** What about the Fold change (HCV 1a WT replicon; HCV genotype 1a, WT, EC50 relative to WT) of the same compound?
**A.** 1

**Q.** What about the EC50 (HCV 1a WT replicon; [12]) of the same compound?
**A.** 0.03 ± 0.002 nM

**Q.** And the Fold change ([3]; HCV genotype 1b, variant L31F + Y93H, EC50 relative to WT)?
**A.** 2,541

**Q.** And the EC50 [3, 12]?
**A.** 28 ± 5.4 nM

**Q.** What about the Fold change (HCV 1b L31F replicon; HCV genotype 1b, variant L31F, EC50 relative to WT) of the same compound?
**A.** 4.0

**Q.** And the EC50 (HCV 1b L31F replicon; [12])?
**A.** 0.05 ± 0.009 nM

**Q.** What about the Fold change (HCV 1a Y93H replicon; HCV genotype 1a, variant Y93H, EC50 relative to WT) of the same compound?
**A.** 1,630

**Q.** And the EC50 (HCV 1a Y93H replicon; [12])?
**A.** 48 ± 1 nM

**Q.** What about the Fold change (HCV 1b Y93H replicon; HCV genotype 1b, variant Y93H, EC50 relative to WT) of the same compound?
**A.** 81

**Q.** What about the EC50 (HCV 1b Y93H replicon; [12]) of the same compound?
**A.** 0.9 ± 0.06 nM

**Q.** What about the Fold change ([4]; HCV genotype 5a, variant L31F, EC50 relative to WT) of the same compound?
**A.** 76

**Q.** And the EC50 [4, 12]?
**A.** 6.1 ± 0.8 nM

**Q.** What about the Fold change (HCV 1a M28T replicon; HCV genotype 1a, variant M28T, EC50 relative to WT) of the same compound?
**A.** 189

**Q.** What about the EC50 (HCV 1a M28T replicon; [12]) of the same compound?
**A.** 5.5 ± 2.8 nM

**Q.** And the Fold change ([5]; HCV genotype 2a, variant Y93H, EC50 relative to WT)?
**A.** 816

**Q.** And the EC50 [5, 12]?
**A.** 96 ± 23 nM

**Q.** And the Fold change (HCV 3a NS5A WT replicon; HCV genotype 3a, WT, EC50 relative to WT)?
**A.** 1

**Q.** What about the EC50 (HCV 3a NS5A WT replicon; [12]) of the same compound?
**A.** 1.2 nM

**Q.** And the Fold change (HCV 2a NS5A WT replicon; HCV genotype 2a, WT, EC50 relative to WT)?
**A.** 1

**Q.** And the EC50 (HCV 2a NS5A WT replicon; [12])?
**A.** 0.12 ± 0.06 nM

**Q.** And the Fold change (HCV 1a Q30R replicon; HCV genotype 1a, variant Q30R, EC50 relative to WT)?
**A.** 168

**Q.** And the EC50 (HCV 1a Q30R replicon; [12])?
**A.** 4.9 ± 1.3 nM

**Q.** What about the Fold change ([6]; HCV genotype 4a, variant P58L, EC50 relative to WT) of the same compound?
**A.** 197

**Q.** And the EC50 [6, 12]?
**A.** 3 ± 0.09 nM

**Q.** What about the Fold change (HCV 1a Y93C replicon; HCV genotype 1a, variant Y93C, EC50 relative to WT) of the same compound?
**A.** 169

**Q.** What about the EC50 (HCV 1a Y93C replicon; [12]) of the same compound?
**A.** 5 ± 0.4 nM

**Q.** What about the Fold change ([7]; HCV genotype 4a, variant L30H, EC50 relative to WT) of the same compound?
**A.** 887

**Q.** What about the EC50 [7, 12] of the same compound?
**A.** 14 ± 0.8 nM

**Q.** What about the Fold change (HCV 5a NS5A WT replicon; HCV genotype 5a, WT, EC50 relative to WT) of the same compound?
**A.** 1

**Q.** And the EC50 (HCV 5a NS5A WT replicon; [12])?
**A.** 0.08 ± 0.04 nM

**Q.** And the Fold change (HCV 1a Y93N replicon; HCV genotype 1a, variant Y93N, EC50 relative to WT)?
**A.** 3,876

**Q.** And the EC50 (HCV 1a Y93N replicon; Hepatitis C virus, read-out: Mean EC50 (nM) ±SD, HCV genotype 1a, variant Y93N)?
**A.** > 100 nM

**Q.** What about the EC50 (HCV 1a Y93N replicon; read-out: Mean EC50 (nM) ±SD, HCV genotype 1a, variant Y93N) of the same compound?
**A.** 113 ± 7.3 nM

**Q.** What about the Fold change (HCV 1b WT replicon; HCV genotype 1b, WT, EC50 relative to WT) of the same compound?
**A.** 1

**Q.** And the EC50 (HCV 1b WT replicon; [12])?
**A.** 0.01 ± 0.003 nM

**Q.** What about the Fold change (HCV 1a Q30K replicon; HCV genotype 1a, variant Q30K, EC50 relative to WT) of the same compound?
**A.** 2,965

**Q.** What about the EC50 (HCV 1a Q30K replicon; [12]) of the same compound?
**A.** 87 ± 17 nM

**Q.** What about the Fold change (HCV 6a NS5A WT replicon; HCV genotype 6a, WT, EC50 relative to WT) of the same compound?
**A.** 1

**Q.** And the EC50 (HCV 6a NS5A WT replicon; [12])?
**A.** 0.2 ± 0.04 nM

**Q.** What about the Fold change [8] of the same compound?
**A.** 4,575

**Q.** And the Fold change [9]?
**A.** 57,587

**Q.** And the Fold change [10]?
**A.** 37,231

**Q.** What about the Fold change [11] of the same compound?
**A.** 2,146

**Q.** And the “cytotoxicity at the highest test concentration” value (HeLa cells)?
**A.** significant cytotoxicity
